Test results reported in patent US20240384268A1, “Oligonucleotides” (Hudson Institute of Medical Research, priority 2021, published 2024).

Target: T1, human TLR7 (Homo sapiens, UniProt Q9NYK1)
T1 construct: HA; host or cells: 293XL-hTLR7-HA (HEK293)
T1 sequence (Q9NYK1 27-1049): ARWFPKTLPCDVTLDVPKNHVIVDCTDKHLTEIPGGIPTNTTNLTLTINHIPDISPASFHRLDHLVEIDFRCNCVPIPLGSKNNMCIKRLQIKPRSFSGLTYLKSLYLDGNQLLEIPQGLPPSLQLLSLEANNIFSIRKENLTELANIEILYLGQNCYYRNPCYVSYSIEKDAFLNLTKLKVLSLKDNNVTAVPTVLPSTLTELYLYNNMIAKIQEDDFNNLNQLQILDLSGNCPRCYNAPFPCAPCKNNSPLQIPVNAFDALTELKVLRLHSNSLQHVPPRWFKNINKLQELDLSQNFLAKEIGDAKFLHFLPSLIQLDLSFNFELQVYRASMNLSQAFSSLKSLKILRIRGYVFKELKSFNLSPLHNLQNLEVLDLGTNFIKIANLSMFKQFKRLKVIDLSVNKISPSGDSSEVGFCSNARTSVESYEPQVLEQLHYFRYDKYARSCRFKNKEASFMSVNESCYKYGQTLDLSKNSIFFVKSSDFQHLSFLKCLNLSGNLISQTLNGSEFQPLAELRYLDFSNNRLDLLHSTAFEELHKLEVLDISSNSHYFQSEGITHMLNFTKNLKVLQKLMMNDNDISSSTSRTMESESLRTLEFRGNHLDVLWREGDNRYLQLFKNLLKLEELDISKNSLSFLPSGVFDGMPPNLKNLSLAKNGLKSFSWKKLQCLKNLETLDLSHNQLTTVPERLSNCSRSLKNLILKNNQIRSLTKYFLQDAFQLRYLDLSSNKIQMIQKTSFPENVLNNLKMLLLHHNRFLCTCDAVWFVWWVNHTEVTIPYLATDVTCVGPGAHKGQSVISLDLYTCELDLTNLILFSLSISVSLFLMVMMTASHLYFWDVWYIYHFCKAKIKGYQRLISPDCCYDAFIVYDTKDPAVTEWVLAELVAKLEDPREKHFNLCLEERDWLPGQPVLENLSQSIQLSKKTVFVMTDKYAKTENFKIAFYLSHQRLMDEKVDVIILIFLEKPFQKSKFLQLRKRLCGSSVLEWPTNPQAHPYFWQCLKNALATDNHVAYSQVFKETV
Test: HEK-TLR7 NF-κB-luciferase reporter, R848 stimulation
Assay type: cell-based
Conditions: averaged NF-κB-Luciferase relative to R848 condition; for TLR7 100 nM: MOE-modified ASO at 100 nM; for TLR7 500 nM: MOE-modified ASO at 500 nM

What does the source list for “AACACTTCGTGGGGTCCTTT (antisense; 2'-MOE modified, pattern not given here) [HPRT-664 MOE]”?
TLR7 100 nM: 0.406; TLR7 500 nM: 0.226

Which “TLR7 100 nM” value does the source give for “AATCCGCCCAAAGGGAACTG (antisense; 2'-MOE modified, pattern not given here) [HPRT-1027 MOE]” here?
Its value is 0.691.

What about the “TLR7 500 nM” value of the same sequence?
The value was 0.521.

How did the “TLR7 100 nM” value turn out when “ACAACCCCTTTCACCATCCC (antisense; 2'-MOE modified, pattern not given here) [MB21D1-689 MOE]” was run?
The value was 0.593.

And the “TLR7 500 nM” value?
The value was 0.533.

With “ACAGTGTTGAGATACTCGGG (antisense; 2'-MOE modified, pattern not given here) [EGFR-3652 MOE]” as the sequence, how does the “TLR7 100 nM” value read?
The value was 0.420.

And the “TLR7 500 nM” value?
The value was 0.129.

With “ACCCACTTGGCAGACCATCA (antisense; 2'-MOE modified, pattern not given here) [CTNN2B-1575 MOE]” as the sequence, how does the “TLR7 100 nM” value read?
The value was 0.473.

What about the “TLR7 500 nM” value of the same sequence?
Its value is 0.336.

For “ACTGACTGTCTTGAGGGTTC (antisense; 2'-MOE modified, pattern not given here) [MB21D1-1483 MOE]”, which “TLR7 100 nM” value is on record?
Its value is 0.627.

And the “TLR7 500 nM” value?
Its value is 0.299.

How did the “TLR7 100 nM” value turn out when “AGATCTGGCAGCCCATCAAC (antisense; 2'-MOE modified, pattern not given here) [CTNN2B-2516 MOE]” was run?
The value was 0.500.

And the “TLR7 500 nM” value?
The value was 0.201.

What does the source list for “AGGTCTTGGCTTCGTGGAGC (antisense; 2'-MOE modified, pattern not given here) [MB21D1-522 MOE]”?
TLR7 100 nM: 0.547; TLR7 500 nM: 0.150

“ATCCAACACTTCGTGGGGTC (antisense; 2'-MOE modified, pattern not given here) [HPRT-668 MOE]” was tested. Which “TLR7 100 nM” value did it give?
The value was 0.758.

And the “TLR7 500 nM” value?
Its value is 0.611.

“ATGTCCCCTGTTGACTGGTC (antisense; 2'-MOE modified, pattern not given here) [HPRT-489 MOE]” was tested. Which “TLR7 100 nM” value did it give?
Its value is 0.426.

What about the “TLR7 500 nM” value of the same sequence?
Its value is 0.224.

How did the “TLR7 100 nM” value turn out when “ATGTCCCGCCACTGGATGCT (antisense; 2'-MOE modified, pattern not given here) [EGFR-727 MOE]” was run?
Its value is 0.397.

What about the “TLR7 500 nM” value of the same sequence?
The value was 0.171.

How did the “TLR7 100 nM” value turn out when “ATGTGATGGCCTCCCATCTC (antisense; 2'-MOE modified, pattern not given here) [HPRT-333 MOE]” was run?
Its value is 0.643.

What about the “TLR7 500 nM” value of the same sequence?
Its value is 0.345.

Which results are given for “CAACACTTCGTGGGGTCCTT (antisense; 2'-MOE modified, pattern not given here) [HPRT-665 MOE]”?
TLR7 100 nM: 0.487; TLR7 500 nM: 0.285

For “CAAGGCCCTTCGCACTTCTT (antisense; 2'-MOE modified, pattern not given here) [EGFR-1225 MOE]”, which “TLR7 100 nM” value is on record?
Its value is 0.587.

What about the “TLR7 500 nM” value of the same sequence?
The value was 0.336.

With “CAATGTGATGGCCTCCCATC (antisense; 2'-MOE modified, pattern not given here) [HPRT-335 MOE]” as the sequence, how does the “TLR7 100 nM” value read?
The value was 0.451.

And the “TLR7 500 nM” value?
The value was 0.279.

“CACCCACTTGGCAGACCATC (antisense; 2'-MOE modified, pattern not given here) [CTNN2B-1576 MOE]” was tested. Which “TLR7 100 nM” value did it give?
Its value is 0.600.

What about the “TLR7 500 nM” value of the same sequence?
Its value is 0.227.

How did the “TLR7 100 nM” value turn out when “CAGATAGCACCTTCAGCACT (antisense; 2'-MOE modified, pattern not given here) [CTNN2B-1294 MOE]” was run?
Its value is 0.497.

And the “TLR7 500 nM” value?
The value was 0.254.

With “CCAACACTTCGTGGGGTCCT (antisense; 2'-MOE modified, pattern not given here) [HPRT-666 MOE]” as the sequence, how does the “TLR7 100 nM” value read?
Its value is 0.856.

And the “TLR7 500 nM” value?
The value was 0.334.

Which results are given for “CGTGTCTGGAAGCTTCCTTT (antisense; 2'-MOE modified, pattern not given here) [CTNN2B-808 MOE]”?
TLR7 100 nM: 0.541; TLR7 500 nM: 0.350

“CTCTTGAAGCATCGTATCAC (antisense; 2'-MOE modified, pattern not given here) [CTNN2B-3648 MOE]” was tested. Which “TLR7 100 nM” value did it give?
Its value is 0.609.

What about the “TLR7 500 nM” value of the same sequence?
The value was 0.341.

“CTGTGATCTTGACATGCTGC (antisense; 2'-MOE modified, pattern not given here) [EGFR-2790 MOE]” was tested. Which “TLR7 100 nM” value did it give?
The value was 0.449.

And the “TLR7 500 nM” value?
The value was 0.206.

Which “TLR7 100 nM” value does the source give for “CTTACTTTCCGAGGTGTCCA (antisense; 2'-MOE modified, pattern not given here) [CAMSAP1-1739 MOE]” here?
Its value is 0.588.

And the “TLR7 500 nM” value?
Its value is 0.336.

For “GAACCACGTCTGCTCTAACA (antisense; 2'-MOE modified, pattern not given here) [CAMSAP1-1635 MOE]”, which “TLR7 100 nM” value is on record?
Its value is 0.597.

What about the “TLR7 500 nM” value of the same sequence?
Its value is 0.291.

“GAGGTCTTGGCTTCGTGGAG (antisense; 2'-MOE modified, pattern not given here) [MB21D1-523 MOE]” was tested. Which “TLR7 100 nM” value did it give?
Its value is 0.419.

What about the “TLR7 500 nM” value of the same sequence?
The value was 0.095.

Which results are given for “GAGTCTCTGGAGCTTCCTCT (antisense; 2'-MOE modified, pattern not given here) [CAMSAP1-2456 MOE]”?
TLR7 100 nM: 0.469; TLR7 500 nM: 0.170

What does the source list for “GATGCTCCTCGGTCTCCCTT (antisense; 2'-MOE modified, pattern not given here) [CAMSAP1-1850 MOE]”?
TLR7 100 nM: 0.453; TLR7 500 nM: 0.199

What does the source list for “GATGGCCTCCCATCTCCTTC (antisense; 2'-MOE modified, pattern not given here) [HPRT-329 MOE]”?
TLR7 100 nM: 0.678; TLR7 500 nM: 0.336

With “GCCGCTTTTCTGTCTGGTTC (antisense; 2'-MOE modified, pattern not given here) [CTNN2B-311 MOE]” as the sequence, how does the “TLR7 100 nM” value read?
Its value is 0.567.

And the “TLR7 500 nM” value?
The value was 0.268.

For “GCGACTATACGCGCAATATG (antisense; 2'-MOE modified, pattern not given here) [NC5 2′MOE]”, which “TLR7 100 nM” value is on record?
The value was 0.948.

And the “TLR7 500 nM” value?
Its value is 0.294.

Which “TLR7 100 nM” value does the source give for “GCGGAGGTCTTGGCTTCGTG (antisense; 2'-MOE modified, pattern not given here) [MB21D1-526 MOE]” here?
Its value is 0.453.

And the “TLR7 500 nM” value?
The value was 0.154.

How did the “TLR7 100 nM” value turn out when “GCGTATTATAGCCGATTAAC (antisense; 2'-MOE modified, pattern not given here) [NC1 2′MOE]” was run?
The value was 0.565.

And the “TLR7 500 nM” value?
The value was 0.265.

How did the “TLR7 100 nM” value turn out when “GCGTGTCTGGAAGCTTCCTT (antisense; 2'-MOE modified, pattern not given here) [CTNN2B-809 MOE]” was run?
Its value is 0.415.

And the “TLR7 500 nM” value?
Its value is 0.134.

How did the “TLR7 100 nM” value turn out when “GCTTCAGGCGCTGCCTTGCC (antisense; 2'-MOE modified, pattern not given here) [CAMSAP1-2709 MOE]” was run?
Its value is 0.527.

What about the “TLR7 500 nM” value of the same sequence?
Its value is 0.196.

For “GGAGATTTCAGAGCAGCTTC (antisense; 2'-MOE modified, pattern not given here) [EGFR-4885 MOE]”, which “TLR7 100 nM” value is on record?
Its value is 0.330.

What about the “TLR7 500 nM” value of the same sequence?
Its value is 0.088.

Which results are given for “GGAGCTTCGAGGCCCCAGGC (MOE modified, pattern not given here) [MB21D1-616 MOE]”?
TLR7 100 nM: 0.392; TLR7 500 nM: 0.179

Which results are given for “GGAGGTCTTGGCTTCGTGGA (antisense; 2'-MOE modified, pattern not given here) [MB21D1-524 MOE]”?
TLR7 100 nM: 0.434; TLR7 500 nM: 0.091

How did the “TLR7 100 nM” value turn out when “GGCATCCACCACGTCGTCCA (antisense; 2'-MOE modified, pattern not given here) [EGFR-3266 MOE]” was run?
The value was 0.216.

And the “TLR7 500 nM” value?
Its value is 0.097.

Which “TLR7 100 nM” value does the source give for “GGGAAAGGTTATGCAAGGTC (antisense; 2'-MOE modified, pattern not given here) [CTNN2B-916 MOE]” here?
The value was 0.599.

And the “TLR7 500 nM” value?
The value was 0.163.

With “GGTCCATACCCAAGGCATCC (antisense; 2'-MOE modified, pattern not given here) [CTNN2B-2446 MOE]” as the sequence, how does the “TLR7 100 nM” value read?
The value was 0.364.

What about the “TLR7 500 nM” value of the same sequence?
Its value is 0.096.

For “GGTGGTCCACAACCCCTTTC (antisense; 2'-MOE modified, pattern not given here) [MB21D1-697 MOE]”, which “TLR7 100 nM” value is on record?
The value was 0.620.

And the “TLR7 500 nM” value?
Its value is 0.097.

How did the “TLR7 100 nM” value turn out when “GGTGGTGGCCACCCATCTCA (antisense; 2'-MOE modified, pattern not given here) [CTNN2B-2479 MOE]” was run?
Its value is 0.480.

What about the “TLR7 500 nM” value of the same sequence?
The value was 0.192.

For “GGTGTCCTTGCACGTGGCTT (antisense; 2'-MOE modified, pattern not given here) [EGFR-1016 MOE]”, which “TLR7 100 nM” value is on record?
Its value is 0.358.

And the “TLR7 500 nM” value?
Its value is 0.131.

Which results are given for “GTCCACATCCTGTGGCTCGT (antisense; 2'-MOE modified, pattern not given here) [CAMSAP1-2906 MOE]”?
TLR7 100 nM: 0.299; TLR7 500 nM: 0.119
